Counter-ions that a name gives are not always drawn.
Target: T1, recombinant human TGR5 (Homo sapiens, UniProt Q8TDU6)
T1 construct: expressed in transfected cells
T1 sequence (Q8TDU6 1-330): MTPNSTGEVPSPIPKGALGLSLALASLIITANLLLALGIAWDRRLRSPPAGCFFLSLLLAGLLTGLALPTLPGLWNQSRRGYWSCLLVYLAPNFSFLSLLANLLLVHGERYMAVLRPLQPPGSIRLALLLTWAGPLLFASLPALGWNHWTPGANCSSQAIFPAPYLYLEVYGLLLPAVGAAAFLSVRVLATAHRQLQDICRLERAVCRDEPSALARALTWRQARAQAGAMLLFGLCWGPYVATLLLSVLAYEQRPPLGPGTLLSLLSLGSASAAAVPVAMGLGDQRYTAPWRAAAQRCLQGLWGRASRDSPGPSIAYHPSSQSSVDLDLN
Assay: cAMP assay (cAMP accumulation, HTRF) in CHOK1 cells stably expressing TGR5
Type: cell-based
Conditions: CHOK1 cells stably expressing human TGR5, 30 minutes at RT, 1% DMSO
Protocol: The in vitro modulation of recombinant human TGR5 was determined as follows.
A human TGR5 expression construct of human TGR5 was integrated into the genome of a CHOK1 cell line (Invitrogen). Once a stable CHOK1 cell line was generated, the cells were incubated for 5-10 minutes in culture medium consisting of F-12 (Invitrogen#11765-047) supplemented with 10% fetal bovine serum.
On the day of the cAMP accumulation assay, cells stably expressing the […] TGR5 construct were centrifuged at 1000 rpm for 5 minutes. The medium was aspirated and the cells were resuspended in 5 mL of assay buffer (phosphate-buffered saline with Ca^2+ and Mg^2+, Invitrogen#14040). The cells were counted using 1:2 dilution and then adjusted to 0.4-0.5×10^6 cells/mL in assay buffer, if necessary. Isobutylmethylxanthine (IBMX, Sigma#I5879) was added via a 1:5000 dilution to make a 0.1 mM final concentration and then 10 μL of the media were transferred to each well of a 384 well poly-D-lysine coated solid white plate (BD #35-6661) pre-dotted with 100 nL of with the desired concentration of compound added from a concentrated stock dissolved in dimethyl sulfoxide (DMSO) to give a final concentration of 1% DMSO in the assay. The plates were covered and incubated for 30 minutes at RT. cAMP accumulation was measured using the CisBio homogeneous time resolved fluorescence (HTRF) assay kit (#62AM2PEC) following the manufacturer's protocol. Briefly, 5 μl each of the cAMP-HTRF fluorescence detection reagents were added to each well, and the samples were incubated for at least one hour at room temperature. Fluorescence was excited at 320 nm and measured at 665 and 620 nm using the Envision instrument (Perkin Elmer), the fluorescence ratio of 665/620 was calculated and converted to nanomolar concentrations of cAMP in each well by interpolation from a cAMP standard curve. The concentration-response curves and EC50 values were calculated with a four parameter logistic curve fit equation utilizing Excel/XLfit software (Microsoft and IDBS). The EC50 value was calculated as the concentration of agonist which increased the cAMP concentration to a value halfway between the baseline and the maximum.

| Compound | EC50 [nM] |
| --- | --- |
| Cc1c(Cl)cccc1OCCOC(=O)N1CCSc2c(-c3cnn(Cc4cccc(OCC(=O)O)c4)c3)cccc21 [Example 375, 2-(3-((4-(4-((2-(3-Chloro-2-methylphenoxy)ethoxy)carbonyl)-3,4-dihydro-2H-benzo[b][1,4]thiazin-8-yl)-1H-pyrazol-1-yl)methyl)phenoxy)acetic acid] | 188 |
| Cc1c(Cl)cccc1OCCOC(=O)N1CCSc2c(-c3cnn(Cc4cccc(C(=O)NCCS(=O)(=O)O)c4Cl)c3)cccc21 [Example 626, 2-(2-Chloro-3-((4-(4-((2-(3-chloro-2-methylphenoxy)ethoxy)carbonyl)-3,4-dihydro-2H-benzo[b][1,4]thiazin-8-yl)-1H-pyrazol-1-yl)metehyl)benzamido)ethanesulfonic acid] | 188 |
| Cc1cccc(CCOCC(=O)N2CCCc3c(-c4cnn(Cc5cccc(C(=O)O)c5)c4)cccc32)c1C [Example 15, 3-((4-(1-(2-(2,3-Dimethylphenethoxy)acetyl)-1,2,3,4-tetrahydroquinolin-5-yl)-1H-pyrazol-1-yl)methyl)benzoic acid] | 5900 |
| Cc1cccc(OCCCC(=O)N2CCCc3c(-c4cnn(Cc5cccc(C(=O)N6CCC(C(=O)O)C6)c5)c4)cccc32)c1C (centres unmarked) [Example 859, 1-(3-((4-(1-(4-(2,3-Dimethylphenoxy)butanoyl)-1,2,3,4-tetrahydroquinolin-5-yl)-1H-pyrazol-1-yl)methyl)benzoyl)pyrrolidine-3-carboxylic acid] | 1360 |
| Cc1cccc(OCCCC(=O)N2C[C@H]3C[C@H]3c3c(-c4cnn(Cc5cccc(NC(=O)NCCC(=O)O)c5)c4)cccc32)c1C (single isomer, unassigned) [Example 249] | 660 |
| Cc1c(Cl)cccc1OCCCC(=O)N1C[C@@H]2C[C@@H]2c2c(-c3cnn(Cc4cccc(C(=O)NCC(=O)O)c4)c3)cccc21 (single isomer, unassigned) [Example 244] | 46 |
| COC(=O)c1ccc(O)c(Cn2cc(-c3cccc4c3[C@H]3C[C@H]3CN4C(=O)OCCOc3cccc(Cl)c3C)cn2)c1 [Example 447, (1aR,7bS)-2-(3-Chloro-2-methylphenoxy)ethyl 7-(1-(2-hydroxy-5-(methoxycarbonyl)benzyl)-1H-pyrazol-4-yl)-1a,2-dihydro-1H-cyclopropa[c] quinoline-3(7bH)-carboxylate] | 1590 |
| Cc1cccc(OCCCC(=O)N2C[C@@H]3C[C@@H]3c3c(-c4cnn(Cc5cccc(C(=O)NCS(=O)(=O)O)c5)c4)cccc32)c1C (single isomer, unassigned) [Example 238] | 59 |
| Cc1c(Cl)cccc1OCCOC(=O)N1C[C@@H]2C[C@@H]2c2c(-c3cnn(Cc4cc(OCCOCC(=O)O)ccc4Cl)c3)cccc21 [Example 448, 2-(2-(4-Chloro-3-((4-((1aR,7bS)-3-((2-(3-chloro-2-methylphenoxy)ethoxy)carbonyl)-1a,2,3,7b-tetrahydro-1H-cyclopropa[c]quinolin-7-yl)-1H-pyrazol-1-yl)methyl)phenoxy)ethoxy)acetic acid] | 183 |
| Cc1cccc(OCCCC(=O)N2CCCc3c(-c4cccc(COC(=O)N[C@@H](Cc5cncn5C)C(=O)O)c4)cccc32)c1C [Example 316, (S)-2-((3-(1-(4-(2,3-Dimethylphenoxy)butanoyl)-1,2,3,4-tetrahydroquinolin-5-yl)benzyloxy)carbonylamino)-3-(1-methyl-1H-imidazol-5-yl) propanoic acid] | 638 |
| Cc1cccc(OCCCC(=O)N2CCCc3c(-c4cnn(Cc5cccc(C(=O)N6CCCC(CO)C6)c5)c4)cccc32)c1C (centres unmarked) [Example 830, 4-(2,3-Dimethylphenoxy)-1-(5-(1-(3-(3-(hydroxymethyl)piperidine-1-carbonyl)benzyl)-1H-pyrazol-4-yl)-3,4-dihydroquinolin-1(2H)-yl)butan-1-one] | 176 |
| Cc1cccc(OCCCC(=O)N2C[C@@H]3C[C@@H]3c3c(-c4cnn(Cc5cccc(C(=O)N(CC(=O)O)CC(=O)O)c5)c4)cccc32)c1C [Example 882, 2,2′-(3-((4-((1aR,7bS)-3-(4-(2,3-Dimethylphenoxy)butanoyl)-1a,2,3,7b-tetrahydro-1H-cyclopropa[c]quinolin-7-yl)-1H-pyrazol-1-yl)methyl)benzoylazanediyl) diacetic acid] | 1340 |
| Cc1cccc(OCCCC(=O)N2CCCc3c(-c4cccc(COC(=O)N(CCCS(=O)(=O)O)C5CC5)c4)cccc32)c1C [Example 36, 3-(Cyclopropyl((3-(1-(4-(2,3-dimethylphenoxy)butanoyl)-1,2,3,4-tetrahydroquinolin-5-yl)benzyloxy)carbonyl)amino)propane-1-sulfonic acid] | 2910 |
| Cc1cccc(OCCCC(=O)N2CCCc3c(-c4cnn(CC(=O)C(C)(C)CC(=O)O)c4)cccc32)c1C [Example 493, 5-(4-(1-(4-(2,3-Dimethylphenoxy)butanoyl)-1,2,3,4-tetrahydroquinolin-5-yl)-1H-pyrazol-1-yl)-3,3-dimethyl-4-oxopentanoic acid] | 4150 |
| Cc1cccc(OCCCC(=O)N2CCCc3c(-c4cccc(COC(=O)NCCC(=O)O)c4)cccc32)c1C [Example 43, 3-((3-(1-(4-(2,3-Dimethylphenoxy)butanoyl)-1,2,3,4-tetrahydroquinolin-5-yl)benzyloxy)carbonylamino)propanoic acid] | 611 |

More lines, in order of falling EC50, values ahead:

| EC50 [nM] | Compound |
| --- | --- |
| 5000 | Cc1cccc(OCCCC(=O)N2CCCc3c(-c4cnn(CCNC(=O)C5(C(=O)NCCS(=O)(=O)O)CC5)c4)cccc32)c1C [Example 110K, 2-(1-(2-(4-(1-(4-(2,3-Dimethylphenoxy)butanoyl)-1,2,3,4-tetrahydroquinolin-5-yl)-1H-pyrazol-1-yl)ethylcarbamoyl)cyclopropanecarboxamido) ethanesulfonic acid] |
| 3930 | Cc1cccc(OCCCC(=O)N2CCCc3c(-c4cnn(Cc5ccc[n+](CC(=O)O)c5)c4)cccc32)c1C [Example 466, 1-(Carboxymethyl)-3-((4-(1-(4-(2,3-dimethylphenoxy)butanoyl)-1,2,3,4-tetrahydroquinolin-5-yl)-1H-pyrazol-1-yl)methyl)pyridinium, TFA salt] |
| 647 | Cc1cccc(OCCCC(=O)N2CCCOc3c(-c4cnn(Cc5ccc(C(=O)NCCC(=O)O)cc5)c4)cccc32)c1C [Example 142, 3-(4-((4-(5-(4-(2,3-Dimethylphenoxy)butanoyl)-2,3,4,5-tetrahydrobenzo[b][1,4]oxazepin-9-yl)-1H-pyrazol-1-yl)methyl)benzamido)propanoic acid] |
| 171 | Cc1c(Cl)cccc1OCCOC(=O)N1C[C@@H]2C[C@@H]2c2c(-c3cnn(Cc4ccc(C(=O)O)cc4Cl)c3)cccc21 [Example 436, 3-Chloro-4-((4-((1aR,7bS)-3-((2-(3-chloro-2-methylphenoxy)ethoxy)carbonyl)-1a,2,3,7b-tetrahydro-1H-cyclopropa[c]quinolin-7-yl)-1H-pyrazol-1-yl)methyl)benzoic acid] |
| 145 | Cc1cccc(OCCCC(=O)N2CCCc3c(-c4nnn(Cc5cccc(C(=O)O)c5)n4)cccc32)c1C [Example 112, 3-((5-(1-(4-(2,3-Dimethylphenoxy)butanoyl)-1,2,3,4-tetrahydroquinolin-5-yl)-2H-tetrazol-2-yl)methyl)benzoic acid] |
| 49 | Cc1c(Cl)cccc1OCCCC(=O)N1C[C@@H]2C[C@@H]2c2c(-c3cnn(Cc4cccc(C(=O)NCS(=O)(=O)O)c4)c3)cccc21 (single isomer, unassigned) [Example 242] |
| 42 | Cc1cccc(OCCCC(=O)N2C[C@@H]3C[C@@H]3c3c(-c4cnn(Cc5cccc(C(=O)NCC(=O)O)c5)c4)cccc32)c1C [Example 878, 2-(3-((4-((1aR,7bS)-3-(4-(2,3-Dimethylphenoxy)butanoyl)-1a,2,3,7b-tetrahydro-1H-cyclopropa[c]quinolin-7-yl)-1H-pyrazol-1-yl)methyl)benzamido)acetic acid] |
| 35 | Cc1c(Cl)cccc1OCCCC(=O)N1CCSc2c(-c3cnn(Cc4cccc(C(=O)NCC(=O)O)c4)c3)cccc21 [Example 566, 2-(3-((4-(4-(4-(3-Chloro-2-methylphenoxy)butanoyl)-3,4-dihydro-2H-benzo[b][1,4]thiazin-8-yl)-1H-pyrazol-1-yl)methyl)benzamido)acetic acid] |
